Consider 49 compounds from the Deep4Chem optical property database.

Structures are written as SMILES.

The data set can be described thus: solvent given as SMILES.

Take `c1ccc(-c2nc(-c3ccc(-c4ccc(-n5c6ccccc6c6ccccc65)cc4)cn3)oc2-c2ccccc2)cc1`: the emission maximum came to 411 nm (in C1CCOC1); 406 nm (in C1COCCO1); 415 nm (in CC#N); 413 nm (in CC(C)=O); 398 nm (in CC(C)OC(C)C); 392 nm (in CCCCCC). Besides, the emission maximum reads like this: (in CCCCOCCCC) 399 nm; (in CCN(CC)CC) 396 nm; (in CCOC(C)=O) 408 nm; (in CCOCC) 400 nm; (in Cc1ccccc1) 404 nm; (in c1ccccc1) 405 nm.

For `Oc1ccc2ccccc2c1-c1nc2c(c3c1-c1ccccc1CC3)-c1ccccc1CC2`, the emission maximum (in ClCCl) stood at 405 nm.

In turn, `C[Si]1(C)O[Si](C)(C)c2cc3c(-c4ccccc4)c4ccccc4nc3cc21` showed an emission maximum (in ClCCl) of 502 nm.

Consider `Cc1ccc2ccccc2c1`, for which the emission maximum (in C1CCCCC1) was found to be 338.75 nm.

For `c1ccc(-c2nc(-c3ccccc3)nc(-n3c4ccccc4c4cccc(-n5c6ccccc6c6ccccc65)c43)n2)cc1`, the emission maximum by setting is: (in C1CCOC1) 477.86 nm; (in Cc1ccccc1) 459.26 nm.

For `O=C1c2ccccc2-c2ccc(N3CCN(c4ccccc4)CC3)c3cccc1c23`, the emission maximum (in C1CCCCC1) worked out at 529 nm; the emission maximum (in C1CCOC1) stood at 583 nm; the emission maximum (in C1COCCO1) is given as 578 nm; the emission maximum (in CC1COC(=O)O1) came to 614 nm; the emission maximum (in CC#N) amounted to 603 nm; the emission maximum (in CC(C)=O) is recorded as 601 nm. The emission maximum was 590 nm (in CCCCCCCCO); 586 nm (in CCCCCO); 581 nm (in CCCCO); 586 nm (in CCCO); 589 nm (in CCO); 587 nm (in CCOC(C)=O). Further, the emission maximum stood at 602 nm (in CN(C)C=O); 577 nm (in CO); 613 nm (in CS(C)=O); 562 nm (in Cc1ccccc1); 591 nm (in ClC(Cl)Cl).

Regarding `CCC1(CC)c2cc(/C=C/c3cc(C#N)c(/C=C/c4ccc5c(c4)C(CC)(CC)c4cc(N6c7ccccc7Sc7ccccc76)ccc4-5)cc3C#N)ccc2-c2ccc(N3c4ccccc4Sc4ccccc43)cc21`, the emission maximum by setting is: (in C1CCOC1) 514 nm; (in CC#N) 610 nm; (in CCCCCC) 518 nm; (in Cc1ccccc1) 547 nm; (in ClCCl) 520 nm.

As to `O=C1Cc2cc3c(cc2CCCc2ccc(cc2)CCC3)CC(=O)Cc2ccc(c3nsnc23)C1`, the emission maximum reads like this: (in C1CCCCC1) 501 nm; (in CC#N) 544 nm; (in ClC(Cl)Cl) 522 nm.

Turning to `F[B-]1(F)n2c(c(Sc3ccccc3)c3c2-c2ccccc2CC3)C=C2C(Sc3ccccc3)=C3CCc4ccccc4C3=[N+]21`, the emission maximum (in CC#N) stood at 661 nm.

In the case of `COc1ccc2c(c1)c1ccccc1n2-c1nc2ccccc2nc1-n1c2ccccc2c2cc(OC)ccc21`, the emission maximum is, setting by setting: (in C1CCOC1) 588.86 nm; (in CCCCCC) 508.97 nm; (in Cc1ccccc1) 560 nm.

Consider `CC(C)(C)c1ccc2c(c1)c1cc(C(C)(C)C)ccc1n2-c1ccc(C#Cc2ccc(C=O)cc2)cc1`, for which the emission maximum (in ClCCl) is 528 nm.

For the setting “in ClC(Cl)Cl”, `COc1ccc(-c2oc3cccc4c5c(-c6ccc(OC)cc6)c(=N)oc6cccc(c2c34)c65)cc1` showed an emission maximum of 505 nm.

`Cc1csc2[n+]1[B-](F)(F)OC(c1ccc(N(C)C)cc1)=N2`: the emission maximum is, setting by setting: (in C1CCOC1) 453 nm; (in CC#N) 466 nm; (in Cc1ccccc1) 437 nm; (in ClCCl) 453 nm.

`C#Cc1ccc2cc(/C=C/C(=O)OCC)c(=O)oc2c1` yielded an emission maximum (in CCO) of 412 nm.

As to `c1ccc(-c2ccc(-c3ccc(N(c4ccccc4)c4ccccc4)cc3)c3nsnc23)cc1`, the emission maximum amounted to 578 nm (in C1CCOC1), 619 nm (in CC(C)=O), 526 nm (in CCCCCC) and 558 nm (in CCOCC).

`N#Cc1c(C#N)c2cc(Cl)c(Cl)cc2c2cc(Cl)c(Cl)cc12`: under “in ClC(Cl)Cl”, the emission maximum is listed as 412 nm.

In turn, `O=C1CC(=O)Nc2cc(Br)ccc2N1` showed an emission maximum (in CS(C)=O) of 350 nm.

Regarding `CC(C)[Si](C#Cc1c2nc3c(nc2c(C#C[Si](C(C)C)(C(C)C)C(C)C)c2nc4ccccc4nc12)C1c2ccccc2C3c2ccccc21)(C(C)C)C(C)C`, the emission maximum (in CCCCCC) is reported as 563 nm.

The compound `F[B-]1(F)n2c(c3ccccc3c2-c2ccccc2)C=C2c3ccccc3C(c3ccccc3)=[N+]21` showed an emission maximum (in C1CCOC1) of 662 nm and an emission maximum (in ClCCl) of 658 nm.

`Cc1ccc(N(c2ccc(C)cc2)c2ccc(Oc3nnc(Cl)nn3)cc2)cc1` came in with an emission maximum (in ClCCl) of 550 nm.

As for `Clc1ccc(/C=C/c2nc3ccccc3o2)cc1`, the emission maximum (in C1CCCCC1) stood at 380 nm and the emission maximum (in CO) was found to be 385 nm.

Consider `C[Si]1(C)O[Si](C)(C)c2cc3nc4ccccc4c(-c4ccccc4)c3cc2[Si](C)(C)O1`, for which the emission maximum (in ClCCl) turned out to be 501 nm.

Consider `Cc1cc(C)c(C)c(-c2ccc3cc(C)c(=O)oc3c2)c1C`, for which the emission maximum by setting is: (in C1CCCCC1) 383 nm; (in CC#N) 388 nm; (in CO) 394 nm.

`[NH3+]c1ccc2ccc(O)cc2c1` yielded an emission maximum (in O) of 357 nm.

Turning to `Cc1ccccc1[B-]1(c2ccccc2C)n2nc(C(F)(F)F)cc2-c2c3ccccc3cc[n+]21`, the emission maximum by setting is: (in C1CCCCC1) 414 nm; (in Cc1ccccc1) 414 nm; (in ClCCl) 412 nm.

`CCOc1cccc(-c2nc3c(c4c2-c2ccccc2CC4)-c2ccccc2CC3)c1O` came in with an emission maximum (in ClCCl) of 406 nm.

With `CCn1c2ccccc2c2cccc(N(c3ccccc3)c3ccccc3)c21`, the emission maximum (in ClCCl) turned out to be 423 nm.

Take `Oc1ccc(C2=N[N+]3=Cc4c(ccc5ccccc45)O[B-]3(c3ccc([B-]45OC(c6ccc(O)cc6)=N[N+]4=Cc4c(ccc6ccccc46)O5)cc3)O2)cc1` (stereo not given): the emission maximum (in C1CCOC1) is 477 nm.

For `COc1ccc(C2=Cc3c4ccccc4cc[n+]3[B-](F)(F)O2)cc1`, the emission maximum (in ClC(Cl)Cl) is 478.2 nm.

`CCOC(=O)c1c2c3c(ccc(C)c3c3cc4ccccc4cc13)N(C)C2=O`: the emission maximum (in CC#N) is reported as 413 nm.

`CC(C)(C)c1ccc2c(c1)c1cc(C(C)(C)C)ccc1n2-c1ccc(-c2nc(-c3ccccc3)nc(-c3ccccc3)n2)c2c1c1ccccc1n2-c1ccccc1`: the emission maximum by setting is: (in C1CCOC1) 450 nm; (in Cc1ccccc1) 417 nm; (in ClCCl) 474.77 nm.

Where the note is “in ClCCl”, `O=C(O)C1=C(C(=O)O)C2=C[C@H]3c4ccccc4[C@]2(S1)c1ccccc13` displayed an emission maximum of 503 nm.

For the setting “in ClCCl”, `COc1ccc(/C=C/c2ncc(-c3ccccc3)o2)cc1OC` came in with an emission maximum of 420 nm.

In turn, `CN(C)c1ccc(C2=CC3=C(c4ccc(C#N)cc4)[C@H]4c5ccccc5[C@]3(S2)c2ccccc24)cc1` gave an emission maximum (in ClCCl) of 599 nm.

In the case of `CCN(CC)c1ccc2cc(-c3nc4c5cccc6ccc7cccc(c7c65)c4n3-c3ccc(C(C)(C)C)cc3)c(=O)oc2c1`, the emission maximum (in ClCCl) was determined as 519 nm.

Compound `O=P1(c2ccccc2)C(c2ccc(C3=Cc4ccccc4P3(=O)c3ccccc3)cc2)=Cc2ccccc21` (stereo not given) returned an emission maximum (in C1CCOC1) of 431 nm.

On to `CC(C)(C)OC(=O)NC(C(=O)OCc1ccc2c3cccc4cccc(c5cccc1c52)c43)c1c[nH]c2ccccc12` (stereo not given), for which the emission maximum (in CCO) turned out to be 447 nm.

Regarding `CN1C(=CC2=C([O-])C(=Cc3oc4ccccc4[n+]3C)C2=C(C#N)C#N)C(C)(C)c2ccccc21`, the emission maximum (in ClC(Cl)Cl) worked out at 673 nm.

For the compound `c1ccc(-c2ccc(-c3ccc(-n4c5ccccc5c5ccccc54)cc3)c3nsnc23)cc1`, the emission maximum is, setting by setting: (in C1CCOC1) 527 nm; (in CC(C)=O) 562 nm; (in CCCCCC) 481 nm; (in CCOCC) 504 nm.

On to `O=C(/C=C/c1cn(-c2ccccc2)nc1-c1ccccc1)c1c(O)c2ccccc2oc1=O`, for which the emission maximum amounted to 489 nm (in C1CCOC1); 482 nm (in C1COCCO1); 507 nm (in CCO); 487 nm (in CCOC(C)=O); 505 nm (in CN(C)C=O); 504 nm (in CO). In addition, the emission maximum is listed as 510 nm (in CS(C)=O), 480 nm (in Cc1ccccc1), 493 nm (in ClC(Cl)Cl) and 502 nm (in ClCCl).

For the compound `Cc1cc2c(ccc3c[n+](C)c(C)cc32)c[n+]1C`, the emission maximum (in CC#N) amounted to 419 nm.

The compound `O=C1CC(c2ccc(Cl)cc2)c2c(c3ccccc3c3nc4ccccc4nc23)O1` (stereo not given) yielded an emission maximum (in ClC(Cl)Cl) of 434 nm.

As to `Cc1ccsc1-c1cc2c3cc(-c4sccc4C)c4nc(C(F)(F)C(F)(F)C(F)(F)F)nc5c(-c6sccc6C)cc(c6cc(-c7sccc7C)c7nc(C(F)(F)C(F)(F)C(F)(F)F)nc1c7c26)c3c45`, the emission maximum (in C1CCOC1) is given as 627 nm.

With `FC(F)(F)c1ccc2oc3nc4oc5ccc(N6c7ccccc7Oc7ccccc76)cc5c4cc3c2c1`, the emission maximum (in ClC(Cl)Cl) is given as 489 nm.

Consider `Cn1c2ccc(S(=O)(=O)O)cc2c(=O)c2cc(S(=O)(=O)O)ccc21`, for which the emission maximum was determined as 424 nm (in CS(C)=O) and 433 nm (in O).

For `c1ccc(-c2ccnc(-c3ccccc3)n2)cc1`, where the note is “in ClC(Cl)Cl”, the emission maximum came to 311 nm.

`O=[N+]([O-])c1ccc(C2=Nc3sc(-c4ccccc4)n[n+]3[B-](F)(F)O2)cc1` displayed an emission maximum (in Cc1ccccc1) of 409 nm.

On to `CC(C)(C)c1ccc2c(c1)c1cc(C(C)(C)C)ccc1n2-c1ccc(C#Cc2ccc(C=C(C#N)C#N)cc2)cc1`, for which the emission maximum reads like this: (in CC#N) 490 nm; (in CCCCC) 448 nm; (in Cc1ccccc1) 554 nm; (in ClCCl) 534 nm.

Under “in CCO”, `Cc1c(COC(=O)c2ccccc2Br)n2c(OCC(=O)c3ccccc3Br)c(C)c(=O)n2c1=O` showed an emission maximum of 458 nm.
